According to patent US20150344426A1, “COMPOUNDS AND THERAPEUTIC USES THEREOF” (ALZHEIMER'S INSTITUTE OF AMERICA, INC., priority 2012, published 2015):
“And” between values parts separate entries of the source, which are not always exact repeats. Equal values may be shown once. Read-outs that look alike come from different tables or passages of the source.

How the values were obtained:
[1] = Kinetic solubility (iSol Explorer method); format: physicochemical; settings: system solution buffer (pION), aqueous buffer, kinetic from dmso stock
Method: Kinetic solubility was determined using the iSol Explorer method (pION Inc.; Woburn, Mass.). Certain Example Compounds were dissolved in dimethylsulfoxide (DMSO; >99.9% ACS spectrophotometric grade; Sigma-Aldrich, St. Louis, Mo.) to a concentration of 100 mM. The DMSO stock was diluted 1:100 in system solution buffer (pION Inc. Wobum Mass.) that had been adjusted to the desired pH (5.0, 6.8, and 7.4) with either HCl or NaOH. The diluted samples in the desired buffer were incubated for 15 minutes at room temperature and filtered using 96-well plate with 0.25 mm glass fiber/1.2 μm polyethersulfone filter bottoms (Corning, Inc.; Corning, N.Y.). The filtrate is transferred to a second 96-well plate and read on a SpectraMAX 190 (Molecular Devices; Sunnyvale, Calif.) scanning from 190 to 498 nm. The data are analyzed with Sol Explorer Command version 2.2, (pION Inc. Woburn, Mass.) and the concentration reported in molarity and/or mass per volume.

[2] = Experiment 2: femoral vein samples of rats after IV Parent Compound A; format: in vivo, female Sprague Dawley rats; settings: for [Par. Cmp. A]: listed as Par. Cmp. A
Method: Experiment 2. Three female Sprague Dawley rats (215-250 g, Charles River Laboratories) with a catheter implanted surgically in the femoral vein for blood sampling were used in this study. Parent Compound A, solubilized in 3% DMA, 40% PEG300, 12% ethanol, and 45% water by volume, was administered IV at a dose of 2.5 mg/kg in a volume of 2 mL/kg. Femoral blood samples were collected from each animal at 0.083, 0.25, 0.5, 1, 2, 4, and 8 hours following administration of compound and processed for analysis of Parent Compound A concentration.
Pharmacokinetic parameters estimated for Parent Compound A included the maximum observed drug concentration (Cmax), time of maximum observed drug concentration (Tmax), apparent terminal half-life (t1/2), area under the concentration-time curve from time zero to 8 hours postdose (AUC(0-8)), and area under the concentration-time curve extrapolated to infinity (AUC(0-inf)). The bioavailability (% F) of Parent Compound A in portal vein samples relative to IV administration was also estimated.
Plasma samples were analyzed for Example Compound 35 or Parent Compound A concentration using a LC-MS/MS method. All sample runs met standard acceptance criteria for discovery purposes, and were based on a standard curve containing at least 7 points. At least half of quality control samples at each of the three concentrations tested, and two thirds of the entire quality control sample pool, were within 15% of their theoretical value. The r^2 value for each standard curve was ≧0.99. The quantitation range for the Example Compound 35 and Parent Compound A assays was 1 to 100 ng/mL and 5 to 2,500 ng/mL, respectively, using a 0.05 mL sample volume.
The data were entered into the PK software package WinNonlin® version 5.1.1. A complete data check was conducted to verify the accuracy of data entry.
Pharmacokinetic parameters were estimated on median plasma concentrations using extravascular input (PO). Nominal collection times after administration of compound were used for PK analyses. The use of a non-compartmental model provided an adequate fit of the data. Pharmacokinetic parameters estimated for Parent Compound A included the maximum observed drug concentration (Cmax), time of maximum observed drug concentration (Tmax), apparent terminal half-life (t1/2), apparent volume of distribution (Vz obs), apparent clearance (C1 obs), area under the concentration-time curve from time zero to 8 hours postdose of Example Compound 35 […], and area under the concentration-time curve extrapolated to infinity (AUC(0-inf)). Example Compound 35 was detected in only one 0.25 hour hepatic portal vein sample at 1.29 ng/mL. Any Example Compound 35 present in all of the other samples was below the quantitation limit of 1 ng/mL and pharmacokinetic parameters were not determined for those samples. The median PK parameters estimated for Parent Compound A following portal vein sampling of the oral dose of Example Compound 35 or following femoral vein sampling of the intravenous dose of Parent Compound A are given in the Table 5 below. Individual and median concentration of Parent Compound A and Example Compound 35 in hepatic portal vein following oral administration of Example Compound 35 (20 mg/kg) to rats pursuant to Experiment 1 are shown in Table 6 below. Individual and median plasma concentration of Parent Compound A in femoral vein following IV administration of Parent Compound A (2.5 mg/kg) to rats pursuant to Experiment 2 are shown in Table 7 below. FIG. 5 depicts median concentration of Parent Compound A and Example Compound 35 in hepatic portal vein of rats following a single oral dose of Example Compound 35 (20 mg/kg). FIG. 6 depicts median plasma concentration of Parent Compound A following a single IV dose of Parent Compound A (2.5 mg/kg) to rats. […]

[3] = female, Sprague-Dawley, rat, plasma (femoral vein), Parent Cmpd. A 2.5 mg/kg IV, Femoral Vein, median

`O=C(NCc1ccc[n+](COC(=O)c2ccccc2)c1)Nc1ccc(OCCc2ccccc2-c2ccccc2)cc1` [Example 35, 1-[(Benzoyloxy)methyl]-3-{[({4-[2-(biphenyl-2-yl)ethoxy]phenyl}carbamoyl)amino]methyl} pyridinium] showed a solubility at 15 min ([1]; pH 5.0, 15 minutes at room temperature) of 402 µM, a solubility at 15 min ([1]; pH 6.8, 15 minutes at room temperature) of 404 µM and a solubility at 15 min ([1]; pH 7.4, 15 minutes at room temperature) of 433 µM.
In the case of `O=C(NCc1cccnc1)Nc1ccc(OCCc2ccccc2-c2ccccc2)cc1` [Parent Compound A, 1-{4-[2-(Biphenyl-2-yl)ethoxy]phenyl}-3-(pyridin-3-ylmethyl)urea], the concentration at 0.083 h ([2]; female, Sprague-Dawley, rat, plasma (femoral vein), iv, 2.5 mg/kg, femoral vein plasma, 0.083 hr after IV Parent Compound A 2.5 mg/kg, read-out: Median [Par. Cmp. A]) is reported as 1920 ng/mL, the concentration at 0.25 h ([2]; female, Sprague-Dawley, rat, plasma (femoral vein), iv, 2.5 mg/kg, femoral vein plasma, 0.25 hr after IV Parent Compound A 2.5 mg/kg, individual rats, read-out: [Par. Cmp. A]) is reported as 1610 ng/mL and the concentration at 0.25 h ([2]; female, Sprague-Dawley, rat, plasma (femoral vein), iv, 2.5 mg/kg, femoral vein plasma, 0.25 hr after IV Parent Compound A 2.5 mg/kg, read-out: Median [Par. Cmp. A]) is reported as 1130 ng/mL. For the same molecule, the concentration at 0.5 h ([2]; female, Sprague-Dawley, rat, plasma (femoral vein), iv, 2.5 mg/kg, femoral vein plasma, 0.5 hr after IV Parent Compound A 2.5 mg/kg, individual rats, read-out: [Par. Cmp. A]) was 568 ng/mL, the concentration at 0.5 h ([2]; female, Sprague-Dawley, rat, plasma (femoral vein), iv, 2.5 mg/kg, femoral vein plasma, 0.5 hr after IV Parent Compound A 2.5 mg/kg, read-out: Median [Par. Cmp. A]) was 720 ng/mL and the concentration at 1 h ([2]; female, Sprague-Dawley, rat, plasma (femoral vein), iv, 2.5 mg/kg, femoral vein plasma, 1 hr after IV Parent Compound A 2.5 mg/kg, individual rats, read-out: [Par. Cmp. A]) was 343 ng/mL. It also gave a concentration at 1 h ([2]; female, Sprague-Dawley, rat, plasma (femoral vein), iv, 2.5 mg/kg, femoral vein plasma, 1 hr after IV Parent Compound A 2.5 mg/kg, read-out: Median [Par. Cmp. A]) of 360 ng/mL, a concentration at 2 h ([2]; female, Sprague-Dawley, rat, plasma (femoral vein), iv, 2.5 mg/kg, femoral vein plasma, 2 hr after IV Parent Compound A 2.5 mg/kg, individual rats, read-out: [Par. Cmp. A]) of 136 ng/mL and a concentration at 2 h ([2]; female, Sprague-Dawley, rat, plasma (femoral vein), iv, 2.5 mg/kg, femoral vein plasma, 2 hr after IV Parent Compound A 2.5 mg/kg, read-out: Median [Par. Cmp. A]) of 177 ng/mL. It also gave a concentration at 4 h ([2]; female, Sprague-Dawley, rat, plasma (femoral vein), iv, 2.5 mg/kg, femoral vein plasma, 4 hr after IV Parent Compound A 2.5 mg/kg, read-out: Median [Par. Cmp. A]) of 26.2 ng/mL, a concentration at 8 h ([2]; female, Sprague-Dawley, rat, plasma (femoral vein), iv, 2.5 mg/kg, femoral vein plasma, 8 hr after IV Parent Compound A 2.5 mg/kg, individual rats, * = below the quantitation limit of 5 ng/mL, read-out: [Par. Cmp. A]) of 1.98 ng/mL and a concentration at 8 h ([2]; female, Sprague-Dawley, rat, plasma (femoral vein), iv, 2.5 mg/kg, femoral vein plasma, 8 hr after IV Parent Compound A 2.5 mg/kg, read-out: Median [Par. Cmp. A]) of 2.1 ng/mL. For the same molecule, the AUC(0-inf) [2, 3] was 1460 ng·h/mL, the Cmax [2, 3] was 1920 ng/mL and the Tmax [2, 3] was 4.2 min. The half-life [2, 3] was 60 min, the AUC(0-t) ([2]; female, Sprague-Dawley, rat, plasma (femoral vein), Parent Cmpd. A 2.5 mg/kg IV, Femoral Vein, median, read-out: AUC(0-8)) was 1460 ng·h/mL and the “[Par. Cmp. A]” value ([2]; femoral vein plasma, 0.083 hr after IV Parent Compound A 2.5 mg/kg, individual rats, 2.5 mg/kg) was 1,303.7 ng/mL and 2,660.1 ng/mL and 1,924.0 ng/mL. The “[Par. Cmp. A]” value ([2]; femoral vein plasma, 0.25 hr after IV Parent Compound A 2.5 mg/kg, individual rats, 2.5 mg/kg) was 1,131.8 ng/mL and 878.3 ng/mL, the “[Par. Cmp. A]” value ([2]; femoral vein plasma, 0.5 hr after IV Parent Compound A 2.5 mg/kg, individual rats, 2.5 mg/kg) was 1,062.6 ng/mL and 719.5 ng/mL and the “[Par. Cmp. A]” value ([2]; femoral vein plasma, 1 hr after IV Parent Compound A 2.5 mg/kg, individual rats, 2.5 mg/kg) was 565.0 ng/mL and 360.4 ng/mL. For the same molecule, the “[Par. Cmp. A]” value ([2]; femoral vein plasma, 2 hr after IV Parent Compound A 2.5 mg/kg, individual rats, 2.5 mg/kg) was 268.6 ng/mL and 177.2 ng/mL, the “[Par. Cmp. A]” value ([2]; femoral vein plasma, 4 hr after IV Parent Compound A 2.5 mg/kg, individual rats, 2.5 mg/kg) was 19.7 ng/mL and 39.7 ng/mL and 26.2 ng/mL and the “[Par. Cmp. A]” value ([2]; femoral vein plasma, 8 hr after IV Parent Compound A 2.5 mg/kg, individual rats, * = below the quantitation limit of 5 ng/mL, 2.5 mg/kg) was 2.05* ng/mL and 2.81* ng/mL.
